In US4229435A, “Preparation of blood fraction” (priority 1978, dated 1980):

Assays:
Type in all cases: biochemical
Settings in all cases: no reducing agent
F V = molecular target: T1, F V (Homo sapiens, UniProt P12259); assay: Coagulation factor V activity in plasma after reducing agent + iodoacetic acid
T1 construct: from tissue; host or cells: human citrated blood plasma
Procedure: (§1) Human blood with anti-coagulating agent (9 parts blood+1 part 3.8% trisodium citrate) is centrifuged and the following tests with plasma were carried out:
(§2) The plasma is divided into 8 ml portions, which are preheated at 37° C. for 5 min. DTT is added in different concentrations, see table 1 below, and is incubated for 5 min. at 37° C. Then iodoacetic acid, 3 mol per mol DTT, is added, and incubation takes place for 15 min. at 37° C. The plasma samples are distributed in portions of about 0.2 ml and are immediately frozen at -70° C. Testing of different coagulation factors is made in known manner.
(§3) The plasma is divided into 8 ml portions, which are preheated at 37° C. for 5 min. DTE is added in different concentrations (see table 2), and is incubated for 5 minutes at 37° C. Then, iodoacetic acid (3 mol per mol DTE) is added and incubation is carried out for 15 minutes at 37° C. The plasma samples are distributed in portions of about 0.2 ml and are immediately frozen at -70° C. Testing of different coagulation factors is made in a manner known per se.
as §3, with “minutes. Lipoic acid” for “min. DTE”, “3),” for “2),”, “lipoic acid)” for “DTE)”
as §3, with “minutes. Mercaptoethanol” for “min. DTE”, “4),” for “2),”, “mercaptoethanol)” for “DTE)”
as §3, with “minutes. Potassium borohydride” for “min. DTE”, “5,” for “2),”, “potassium borohydride)” for “DTE)”

F II = molecular target: T2, F II (Homo sapiens, UniProt P00734); assay: Coagulation factor II activity in plasma after reducing agent + iodoacetic acid
T2 construct: from tissue; host or cells: human citrated blood plasma
Procedure: as §1, §2, §3
as §3, with “minutes. Lipoic acid” for “min. DTE”, “3),” for “2),”, “lipoic acid)” for “DTE)”
as §3, with “minutes. Mercaptoethanol” for “min. DTE”, “4),” for “2),”, “mercaptoethanol)” for “DTE)”
as §3, with “minutes. Potassium borohydride” for “min. DTE”, “5,” for “2),”, “potassium borohydride)” for “DTE)”

F X = molecular target: T3, F X (Homo sapiens, UniProt P00742); assay: Coagulation factor X activity in plasma after reducing agent + iodoacetic acid
T3 construct: from tissue; host or cells: human citrated blood plasma
Procedure: as §1, §2, §3
as §3, with “minutes. Lipoic acid” for “min. DTE”, “3),” for “2),”, “lipoic acid)” for “DTE)”
as §3, with “minutes. Mercaptoethanol” for “min. DTE”, “4),” for “2),”, “mercaptoethanol)” for “DTE)”
as §3, with “minutes. Potassium borohydride” for “min. DTE”, “5,” for “2),”, “potassium borohydride)” for “DTE)”

[1] = Table 1 B: control plasma + iodoacetic acid, same amount as in F
[2] = Table 2 B: control plasma + iodoacetic acid, same amount as in E
[3] = Table 3 B: control plasma + iodoacetic acid, same amount as in E
[4] = Table 4 B: control plasma + iodoacetic acid, same amount as in D
[5] = Table 5 B: control plasma + iodoacetic acid, same amount as in D

T1 sequence (P12259 29-2224): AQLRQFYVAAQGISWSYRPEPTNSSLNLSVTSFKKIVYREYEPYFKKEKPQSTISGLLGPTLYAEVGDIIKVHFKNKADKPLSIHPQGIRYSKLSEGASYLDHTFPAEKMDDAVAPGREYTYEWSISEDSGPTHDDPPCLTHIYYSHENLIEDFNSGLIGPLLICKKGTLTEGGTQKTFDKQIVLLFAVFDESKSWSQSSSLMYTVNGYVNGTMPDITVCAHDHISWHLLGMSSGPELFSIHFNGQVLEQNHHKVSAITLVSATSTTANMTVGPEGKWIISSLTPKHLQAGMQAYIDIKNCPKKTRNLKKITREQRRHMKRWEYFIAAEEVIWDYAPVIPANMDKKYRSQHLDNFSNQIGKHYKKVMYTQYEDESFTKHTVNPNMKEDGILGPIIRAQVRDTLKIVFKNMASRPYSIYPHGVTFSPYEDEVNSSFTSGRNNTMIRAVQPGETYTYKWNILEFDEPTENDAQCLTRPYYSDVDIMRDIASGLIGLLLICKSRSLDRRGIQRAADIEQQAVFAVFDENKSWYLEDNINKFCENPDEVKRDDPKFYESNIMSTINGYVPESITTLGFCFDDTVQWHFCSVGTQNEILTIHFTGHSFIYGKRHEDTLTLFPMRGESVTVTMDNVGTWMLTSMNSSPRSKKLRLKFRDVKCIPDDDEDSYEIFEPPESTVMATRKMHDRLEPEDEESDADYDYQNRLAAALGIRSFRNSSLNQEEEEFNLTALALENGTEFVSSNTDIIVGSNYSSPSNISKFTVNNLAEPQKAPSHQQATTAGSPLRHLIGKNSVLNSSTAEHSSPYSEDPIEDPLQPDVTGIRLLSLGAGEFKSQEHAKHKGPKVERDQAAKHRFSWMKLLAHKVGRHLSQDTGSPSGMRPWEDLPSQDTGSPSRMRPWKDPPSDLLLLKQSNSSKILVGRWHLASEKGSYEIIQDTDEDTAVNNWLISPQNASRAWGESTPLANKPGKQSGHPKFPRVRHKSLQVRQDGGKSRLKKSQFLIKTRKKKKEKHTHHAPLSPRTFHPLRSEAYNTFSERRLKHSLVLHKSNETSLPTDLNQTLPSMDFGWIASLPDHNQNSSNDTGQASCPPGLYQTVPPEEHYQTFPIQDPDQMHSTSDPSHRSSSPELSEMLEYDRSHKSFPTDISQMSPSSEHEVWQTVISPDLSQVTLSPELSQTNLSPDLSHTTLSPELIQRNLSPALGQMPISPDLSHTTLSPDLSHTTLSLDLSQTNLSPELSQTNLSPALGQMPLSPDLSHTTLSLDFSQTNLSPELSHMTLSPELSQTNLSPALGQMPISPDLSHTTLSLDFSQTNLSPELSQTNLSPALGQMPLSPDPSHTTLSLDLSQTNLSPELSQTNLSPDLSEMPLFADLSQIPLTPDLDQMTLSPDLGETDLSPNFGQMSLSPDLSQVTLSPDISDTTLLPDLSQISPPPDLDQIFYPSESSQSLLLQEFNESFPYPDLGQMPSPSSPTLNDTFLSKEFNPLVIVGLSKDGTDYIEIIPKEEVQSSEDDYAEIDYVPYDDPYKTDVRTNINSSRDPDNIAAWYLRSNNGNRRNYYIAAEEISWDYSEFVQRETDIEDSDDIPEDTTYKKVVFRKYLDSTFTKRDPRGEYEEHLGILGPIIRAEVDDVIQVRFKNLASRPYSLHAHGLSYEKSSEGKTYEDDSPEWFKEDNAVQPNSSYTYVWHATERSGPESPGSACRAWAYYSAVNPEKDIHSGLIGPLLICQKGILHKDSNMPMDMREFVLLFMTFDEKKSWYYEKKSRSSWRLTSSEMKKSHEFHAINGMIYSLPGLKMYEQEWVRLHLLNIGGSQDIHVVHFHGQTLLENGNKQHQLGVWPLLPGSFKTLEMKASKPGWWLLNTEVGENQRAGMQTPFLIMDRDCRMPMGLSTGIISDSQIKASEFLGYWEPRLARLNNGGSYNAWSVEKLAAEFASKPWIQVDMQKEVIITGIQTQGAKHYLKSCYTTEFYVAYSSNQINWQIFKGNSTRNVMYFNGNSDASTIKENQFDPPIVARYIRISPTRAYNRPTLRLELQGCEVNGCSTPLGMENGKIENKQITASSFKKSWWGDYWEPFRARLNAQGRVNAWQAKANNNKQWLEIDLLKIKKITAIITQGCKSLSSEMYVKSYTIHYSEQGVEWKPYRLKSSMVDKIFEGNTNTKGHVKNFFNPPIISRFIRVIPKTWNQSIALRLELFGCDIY
T3 sequence (P00742 235-488 limits assumed): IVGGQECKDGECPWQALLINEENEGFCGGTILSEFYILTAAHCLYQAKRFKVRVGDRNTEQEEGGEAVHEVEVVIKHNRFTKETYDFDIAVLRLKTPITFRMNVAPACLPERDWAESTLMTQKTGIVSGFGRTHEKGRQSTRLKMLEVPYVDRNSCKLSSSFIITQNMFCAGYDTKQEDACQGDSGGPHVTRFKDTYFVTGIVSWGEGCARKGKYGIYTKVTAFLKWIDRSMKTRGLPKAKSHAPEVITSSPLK
T3 sequence (P00742 41-179 limits assumed): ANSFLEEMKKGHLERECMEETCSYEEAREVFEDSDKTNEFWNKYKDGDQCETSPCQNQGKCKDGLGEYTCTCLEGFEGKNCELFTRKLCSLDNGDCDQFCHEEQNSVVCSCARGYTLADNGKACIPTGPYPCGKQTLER

O=C(O)CI [iodoacetic acid]
Coagulation factor F V (F V; [1]): 95 % of control
Coagulation factor F V (F V; [2]): 105 % of control
Coagulation factor F V (F V; [3]): 105 % of control
Coagulation factor F V (F V; [4]): 67 % of control
Coagulation factor F V (F V; [5]): 67 % of control
Coagulation factor F II (F II; [1]): 99 % of control
Coagulation factor F II (F II; [2]): 100 % of control
Coagulation factor F II (F II; [3]): 100 % of control
Coagulation factor F II (F II; [4]): 88 % of control
Coagulation factor F II (F II; [5]): 88 % of control
Coagulation factor F X (F X; [1]): 96 % of control
Coagulation factor F X (F X; [2]): 87 % of control
Coagulation factor F X (F X; [3]): 87 % of control
Coagulation factor F X (F X; [4]): 86 % of control
Coagulation factor F X (F X; [5]): 86 % of control
